d = 2'-deoxy (DNA); r = 2'-OH (RNA)

Data set [1] has as its system CCN3. Briefly: Real-time PCR of CCN3 expression in CML cell lines (K562) after treatment. In kind it is cell-based, human. The conditions noted are these: for CCN3 expression (in words): CML cell lines; for mean Ct change for CCN3: n=3. As to the method:
(§1) K562 cells were nucleofected following the manufacturer's instructions using the Cell Line Nucleofector Kit V, program T-16 (Amaxa GmbH, Cologne, Germany) and transfected with either the appropriate si-RNA, a scrambled si-RNA sequence or a non-silencing fluorescently labeled si-RNA (Amaxa GmbH) to monitor transfection efficiency. […] Leukemia.
(§2) RQ-PCR was performed with an ABI PRISM 7700 Sequence Detector which exploits TaqMan probe based chemistry (Applied Biosystems, Foster City, Calif.). The 5′ reporter used was 6-carboxyfluorescein (FAM) and the 3′ quencher was 6-carboxy-tetramethylrhodamine (TAMRA). Primers and probes for CCN3 were designed against GenBank published sequences in association with Primer Express (Applied Biosystems). […] Leukemia. […] Amplifications were performed following an initial 2-minute incubation at 50° C. to allow uracil-N-glycosylase (UNG) to destroy any contaminating […], followed by treatment at 95° C. for 10 minutes to inactivate the UNG enzyme and activate the AmpliTaq Gold DNA polymerase. This was followed by 40 to 45 cycles of denaturing at 95° C. for 15 seconds and annealing/extension at 60° C. for 1 minute. Data were collected and analysed with Sequence Detector v1.6.3 software (Applied Biosystems).
On the technique in general: Quantitative PCR measures a nucleic acid by following its amplification.

The subject of data set [2] is CCN3. Description: Western blot of cellular and secreted CCN3 in CD34+ cells from CML patients treated in vitro. Conditions: CD34+ cells from three CML patients at diagnosis, imatinib 1 μM, 72 hours in vitro. The data set is classed as cell-based, human. In general terms: Immunoblotting shows a protein as a band on a membrane.
Data set [3] concerns CCN3. Briefly: Real-time PCR of CCN3 in bone marrow of CML patients at diagnosis and following treatment. Conditions: three CML patients, diagnosis vs following treatment. The data set is classed as in vivo, human. An excerpt: Leukemia. 2003; 17:2474-2486).
Data set [4] concerns BCR-ABL. Description: Real-time PCR of BCR-ABL expression in CML cell lines (K562) after treatment. The data set is classed as cell-based, human. Here is the method: as §1, §2
In data set [5] the test system is CCN3. Briefly: Extracellular (secreted) CCN3 protein levels in K562 after siRNA to BCR-ABL. The data set is classed as cell-based, human. Conditions: K562 cells, n=3. As to the method:
Protein was extracted from cells by suspending in RIPA buffer (1×PBS, 1% Nonidet NP-40, 0.1% SDS) containing a cocktail of protease Inhibitors (Complete Mini Cocktail, Roche Diagnostics Ltd, Lewes, UK) at a concentration of 10^7 cells/mL and lysing for 10 minutes on ice. Samples were sonicated for 10 seconds to ensure complete lysis, centrifuged at 10,000 g at 4° C. for 10 minutes and the supernatant removed for analysis. Total protein content was determined by the […] using the BCA protein assay kit (Pierce, Cramlington, UK). Protein (15 μg) was loaded onto a pre-cast Bis-Tris polyacrylamide gel (10%) using the Novex mini gel system (Invitrogen, Paisley, UK) and subsequently transferred to a PVDF membrane. CCN3 expression was detected using an antibody raised against the C terminus of CCN3. Equivalent protein loading was controlled by monitoring actin expression using a pan-actin antibody (Cell Signalling Technology Inc, MA). Immunoblots were visualised by enhanced chemiluminescence (Supersignal, Pierce). Optical densitometry was performed using the […] (Ultra-Violet Products Ltd., Cambridge, UK) and corrected for protein loading. CCN3 protein is glycosylated and binds to heparin. Medium in which ts BCR-ABL FDCP-Mix or control cells had been grown for 24 hours was harvested and enriched for CCN3 protein using heparin sepharose. […]

Data set [6] has as its system K562 cells. Briefly: Flow cytometric cell cycle analysis (sub-G0) of K562 cells treated with exogenous recombinant CCN3. The data set is classed as cell-based, human. The conditions noted are these: 100 ng/ml CCN3, 48 hours. As to the method:
K562 cells (1×10^6 cells/well) were treated with recombinant CCN3 (100 ng/ml, Peprotech EC, London, UK) in vitro for 48 hours. Cells were then fixed in 70% ethanol for flow cytometric analysis of cell cycle status as before.
A general note: A flow cytometer gives signals particle by particle.

Setting [7] is: K562 cells, siRNA 0.5 μg/10^8 cells, 24 hours.

As for `Cc1ccc(NC(=O)c2ccc(CN3CCN(C)CC3)cc2)cc1Nc1nccc(-c2cccnc2)n1` [imatinib], the “CCN3 expression (in words)” value in data set [1] was “increased CCN3 expression”. Also, the “mean Ct change for CCN3” value in data set [1] (K562 cells, 1 μM imatinib, 96 hours) is listed as 2.1±0.2. For the same molecule, the “cellular and secreted CCN3 expression (in words)” value in data set [2] is “significant increase in both cellular and secreted CCN3 expression”. For the same molecule, in data set [3], the “CCN3 expression following treatment (in words)” value is on record as “reciprocal rise in CCN3”.
In the case of “si-RNA directed against BCR-ABL: 21-base si-RNA directed against the fusion sequence of BCR-ABL, SEQ ID NO 9 sense, SEQ ID NO 10 antisense (sense GCAGAGUUCAAAAGCCCUUTT; antisense AAGGGCUUUUGAACUCUGCTT; sugars from the 5' end r19 d2, backbone not given here)”, the “BCR-ABL expression (in words)” value in data set [4] (CML cell lines) is “significantly reduced BCR-ABL”. The “fold decrease in BCR-ABL” value in data set [4] (setting [7]) is reported as 3.7 fold. The “mean Ct change for BCR-ABL” value in data set [4] (K562 cells, siRNA to BCR-ABL, n=3) is given as 1.9±0.2. The “CCN3 expression (in words)” value in data set [1] is listed as “increased CCN3 expression”. The “fold increase in CCN3” value in data set [1] (setting [7]) was 6.1 fold. The “mean Ct change for CCN3” value in data set [1] (K562 cells, siRNA to BCR-ABL) turned out to be 2.6±0.5. The “decrease in secreted levels of CCN3 protein” value in data set [5] is 33±5%.

B1: recombinant CCN3: recombinant CCN3 protein from Peprotech EC, London, UK (protein, UniProt P48745 32-357, looked up)
CCN family member 3: TQRCPPQCPGRCPATPPTCAPGVRAVLDGCSCCLVCARQRGESCSDLEPCDESSGLYCDRSADPSNQTGICTAVEGDNCVFDGVIYRSGEKFQPSCKFQCTCRDGQIGCVPRCQLDVLLPEPNCPAPRKVEVPGECCEKWICGPDEEDSLGGLTLAAYRPEATLGVEVSDSSVNCIEQTTEWTACSKSCGMGFSTRVTNRNRQCEMLKQTRLCMVRPCEQEPEQPTDKKGKKCLRTKKSLKAIHLQFKNCTSLHTYKPRFCGVCSDGRCCTPHNTKTIQAEFQCSPGQIVKKPVMVIGTCTCHTNCPKNNEAFLQELELKTTRGKM
With B1, in data set [6], the sub-G0 peak is reported as 23.7±6.9%.

The values above are taken from patent US20100004169A1, “CCN3 peptide” (The Queen's University of Belfast, priority 2006, published 2010).
